From patent US20220133650A1, “COMBINATION THERAPY FOR TREATMENT OF BRAIN DISORDERS” (B. G. NEGEV TECHNOLOGIES AND APPLICATIONS LTD., AT …, priority 2019, published 2022)

Assays:
exposed rat cortex [1] = experiment: Agonist-induced vascular permeability to NaFlu, agonists added to ACSF with neuronal activity blocked; type: in vivo, Sprague-Dawley rats; conditions: neuronal activity and synaptic transmission blocked, mean±SEM
exposed rat cortex [2] = experiment: Seizure (4AP)-induced BBB dysfunction, fluorescent angiography permeability index; type: in vivo, Sprague-Dawley rats; conditions: 4AP-induced seizures (SE), NaFlu tracer, mean±SEM
rat brain [3] = experiment: T2-weighted MRI after photo-induced thrombotic stroke, relative lesion volume; type: in vivo; conditions: 48 h following photothrombosis; osmotic pumps i.p.; memantine 40 mg/kg, losartan 60 mg/kg; mean±SEM
rat brain [4] = experiment: Contrast enhanced T1-weighted MRI after photo-induced thrombotic stroke, relative BBB dysfunction volume; type: in vivo; conditions: 48 h following photothrombosis; osmotic pumps i.p.; memantine 40 mg/kg, losartan 60 mg/kg; mean±SEM
[5] = 10 min after adding the agonist to ACSF
[6] = 30 min after adding the agonist to ACSF

Compound: bovine-serum albumin: bovine serum albumin, 0.2 mM added to the ACSF
- shift in vascular permeability to NaFlu (PI shift from pre-substance application) (exposed rat cortex [1]; [5]): −2.55±4.6%
- shift in vascular permeability to NaFlu (PI shift from pre-substance application) (exposed rat cortex [1]; [6]): −0.33±8.36%

Compound: N[C@H](CCCP(=O)(O)O)C(=O)O [AP5, D-(−)-2-amino-5-phosphonopentanoic acid]
- shift in PI (BBB permeability index) from baseline (exposed rat cortex [2]; 10 min from seizure onset): −1.19±4.71%
- shift in PI (BBB permeability index) from baseline (exposed rat cortex [2]; 30 min from seizure onset): 18.78±6.93%

Compound: angiotensin II (DRVYIHPF; Angiotensin-2; UniProt P01019 25-32, looked up) [ATII, angiotensin II, agonist added to the ACSF, 70 μM]
- shift in vascular permeability to NaFlu (PI shift from pre-substance application) (exposed rat cortex [1]; [5]): −4.11±3.35%
- shift in vascular permeability to NaFlu (PI shift from pre-substance application) (exposed rat cortex [1]; [6]): −12.33±3.45%

Compound: CC12CC3CC(C)(C1)CC(N)(C3)C2 [memantine, 3,5-dimethyladamantan-1-amine]
- relative lesion volume (100*# lesion voxels/# brain voxels) (rat brain [3]): 24.18±3.75%
- relative BBB dysfunction volume (100*# BBBD voxels/# brain voxels) (rat brain [4]): 15.03±1.83%
- shift in PI (BBB permeability index) from baseline (exposed rat cortex [2]; 10 min from seizure onset): 3.14±3.1%
- shift in PI (BBB permeability index) from baseline (exposed rat cortex [2]; 30 min from seizure onset): 20.86±3.78%

Compound: TGF-β1: transforming growth factor beta 1, 10 ng/ml added to the ACSF
- shift in vascular permeability to NaFlu (PI shift from pre-substance application) (exposed rat cortex [1]; [6]): 15.3±7.62%
